Experimental data: PMC6403222, “Identification of a novel class of RIP1/RIP3 dual inhibitors that impede cell death and inflammation in mouse abdominal aortic aneurysm models” (Cell Death & Disease, 2019)

Assays:
[1] = target: T1, EPHB6 (Homo sapiens, UniProt O15197); assay: KINOMEscan competition binding, single concentration […]; conditions: read-out: % of control at 100 nM
[2] = target: T2, CSF1R (Homo sapiens, UniProt P07333); assay: as above; conditions: read-out: % of control at 100 nM
[3] = target: T3, KIT (Homo sapiens, UniProt P10721); assay: as above; conditions: read-out: % of control at 100 nM
T3 sequence (P10721 26-976): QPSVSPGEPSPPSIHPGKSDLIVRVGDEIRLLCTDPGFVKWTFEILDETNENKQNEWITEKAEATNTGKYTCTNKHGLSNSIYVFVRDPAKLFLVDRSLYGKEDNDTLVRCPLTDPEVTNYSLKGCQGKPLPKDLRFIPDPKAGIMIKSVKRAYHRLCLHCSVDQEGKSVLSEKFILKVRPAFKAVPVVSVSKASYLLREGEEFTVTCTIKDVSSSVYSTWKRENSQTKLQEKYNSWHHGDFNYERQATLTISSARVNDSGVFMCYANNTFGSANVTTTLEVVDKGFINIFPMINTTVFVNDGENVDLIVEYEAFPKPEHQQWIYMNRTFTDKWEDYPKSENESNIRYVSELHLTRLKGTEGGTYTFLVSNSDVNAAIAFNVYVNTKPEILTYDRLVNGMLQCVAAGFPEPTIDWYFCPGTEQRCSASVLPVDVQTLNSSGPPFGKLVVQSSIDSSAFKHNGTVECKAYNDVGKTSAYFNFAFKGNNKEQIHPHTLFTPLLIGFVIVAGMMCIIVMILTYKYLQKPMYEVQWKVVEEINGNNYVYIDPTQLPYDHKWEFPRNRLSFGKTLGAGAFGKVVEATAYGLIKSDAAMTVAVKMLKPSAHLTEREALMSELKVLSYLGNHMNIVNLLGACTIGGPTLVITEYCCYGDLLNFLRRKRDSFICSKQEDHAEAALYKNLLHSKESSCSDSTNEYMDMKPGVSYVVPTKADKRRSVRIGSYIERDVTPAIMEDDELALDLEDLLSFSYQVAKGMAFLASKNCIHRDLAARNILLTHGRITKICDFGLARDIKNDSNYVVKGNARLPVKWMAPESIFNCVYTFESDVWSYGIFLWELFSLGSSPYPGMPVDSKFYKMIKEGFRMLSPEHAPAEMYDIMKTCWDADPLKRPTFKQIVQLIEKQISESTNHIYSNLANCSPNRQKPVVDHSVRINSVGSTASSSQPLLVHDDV

[4] = target: T4, RIP1 (Homo sapiens, UniProt Q13546); assay: KINOMEscan competition binding Kd; also ADP-Glo kinase inhibition
T4 construct: gene RIPK1; kinase domain
T4 sequence (Q13546 1-294 limits assumed): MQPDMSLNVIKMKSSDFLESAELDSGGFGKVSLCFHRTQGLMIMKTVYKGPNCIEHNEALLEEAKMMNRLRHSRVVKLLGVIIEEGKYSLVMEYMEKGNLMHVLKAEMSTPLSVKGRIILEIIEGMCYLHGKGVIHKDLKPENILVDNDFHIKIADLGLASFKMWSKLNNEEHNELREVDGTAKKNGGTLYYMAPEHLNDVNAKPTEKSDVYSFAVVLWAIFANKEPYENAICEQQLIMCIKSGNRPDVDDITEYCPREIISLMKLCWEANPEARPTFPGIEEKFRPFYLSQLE

[5] = target: T5, RIP3 (Homo sapiens, UniProt Q9Y572); assay: as above
T5 construct: gene RIPK3; kinase domain

[6] = target: T6, MEK5 (Homo sapiens, UniProt Q13163); assay: KINOMEscan competition binding, single concentration […]; conditions: read-out: % of control at 100 nM
T6 construct: gene MAP2K5
T6 sequence (Q13163 whole entry): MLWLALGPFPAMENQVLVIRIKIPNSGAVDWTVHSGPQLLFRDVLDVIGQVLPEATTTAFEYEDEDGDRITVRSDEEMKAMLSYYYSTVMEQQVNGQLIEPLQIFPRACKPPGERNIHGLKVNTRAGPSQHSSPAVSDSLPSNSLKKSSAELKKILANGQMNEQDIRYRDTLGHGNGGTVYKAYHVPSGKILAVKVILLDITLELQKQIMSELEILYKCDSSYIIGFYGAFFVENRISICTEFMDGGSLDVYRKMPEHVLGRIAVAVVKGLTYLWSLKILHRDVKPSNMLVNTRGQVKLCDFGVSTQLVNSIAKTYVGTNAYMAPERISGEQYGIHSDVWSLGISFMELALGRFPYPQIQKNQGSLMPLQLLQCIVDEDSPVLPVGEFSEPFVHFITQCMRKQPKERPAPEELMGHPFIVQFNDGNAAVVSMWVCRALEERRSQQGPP

[7] = target: T7, ABL1(E255K)-phosphorylated (Homo sapiens, UniProt P00519, E255K); assay: biochemical; set-up: KINOMEscan competition binding assay (DiscoveRx), per cent of control at 100 nM; conditions: competition binding, per cent of DMSO control; read-out: Percent Control
T7 construct: phosphorylated
Experimental: (§1) The selectivity of GSK’074 was evaluated using KINOMEscan™ profiling service (DiscoveRx Corporation, Fremont, CA). In brief, an in vitro competition binding assay was used to evaluate GSK’074 specificity at a concentration of 100 nM against 468 human kinases including 403 non-mutant kinases and 65 mutant kinases, as described previously[33],[50]. KINOMEscan™ was also used to determine binding constants (Kd) for GSK’074 against RIP1 and RIP3. In brief, an 11-point threefold serial dilution of GSK’074 was prepared in 100% DMSO at 100× final test concentration and subsequently diluted to 1× in the assay buffer. Kds were calculated with a standard dose-response curve using the Hill equation. Curves were fitted using a non-linear least square fit with the Levenberg–Marquardt algorithm. Next, we investigated the selectivity profile of GSK’074 against a panel of 468 kinases, including 403 non-mutant kinases using the KINOMEscan™ profiling service. […] KIT, MEK5, CSF1R, or EPHB6 had no established roles in cell death and their expression levels in SMCs, with the exception of MEK5, were negligible (Supplementary Figure 3).  Fig. 6 Selectivity profile of GSK’074. Binding of GSK’074 (100 nM) against 468 human kinases (403 non-mutant kinases, 65 mutant kinases) was assessed by DiscoveRx KINOMEscan™. a Selectivity scores of GSK’074. Selectivity score was defined as the number of non-mutant kinases bound to GSK’074 <35% of control (S(35)), 10% of control (S(10)), or 1% of control (S(1)). b TREEspot map of kinases potentially targeted by GSK’074.

[8] = target: T8, ABL1(H396P)-nonphosphorylated (Homo sapiens, UniProt P00519, H396P); assay: biochemical; set-up: KINOMEscan competition binding assay (DiscoveRx), per cent of control at 100 nM; conditions: competition binding, per cent of DMSO control; read-out: Percent Control
T8 construct: nonphosphorylated
Experimental: as §1

[9] = target: T9, ABL1(Q252H)-nonphosphorylated (Homo sapiens, UniProt P00519, Q252H); assay: biochemical; set-up: KINOMEscan competition binding assay (DiscoveRx), per cent of control at 100 nM; conditions: competition binding, per cent of DMSO control; read-out: Percent Control
T9 construct: nonphosphorylated
Experimental: as §1

[10] = target: T10, ABL1(T315I)-nonphosphorylated (Homo sapiens, UniProt P00519, T315I); assay: biochemical; set-up: KINOMEscan competition binding assay (DiscoveRx), per cent of control at 100 nM; conditions: competition binding, per cent of DMSO control; read-out: Percent Control
T10 construct: nonphosphorylated
Experimental: as §1

[11] = target: T11, ABL1(T315I)-phosphorylated (Homo sapiens, UniProt P00519, T315I); assay: biochemical; set-up: KINOMEscan competition binding assay (DiscoveRx), per cent of control at 100 nM; conditions: competition binding, per cent of DMSO control; read-out: Percent Control
T11 construct: phosphorylated
Experimental: as §1

[12] = target: T12, ABL1-nonphosphorylated (Homo sapiens, UniProt P00519); assay: biochemical; set-up: KINOMEscan competition binding assay (DiscoveRx), per cent of control at 100 nM; conditions: competition binding, per cent of DMSO control; read-out: Percent Control
T12 construct: nonphosphorylated
Experimental: as §1

[13] = target: T13, ABL1-phosphorylated (Homo sapiens, UniProt P00519); assay: biochemical; set-up: KINOMEscan competition binding assay (DiscoveRx), per cent of control at 100 nM; conditions: competition binding, per cent of DMSO control; read-out: Percent Control
T13 construct: phosphorylated
Experimental: as §1

[14] = target: AURKB (Homo sapiens, UniProt Q96GD4); assay: biochemical; set-up: KINOMEscan competition binding assay (DiscoveRx), per cent of control at 100 nM; conditions: competition binding, per cent of DMSO control; read-out: Percent Control
Experimental: as §1

[15] = target: AURKC (Homo sapiens, UniProt Q9UQB9); assay: biochemical; set-up: KINOMEscan competition binding assay (DiscoveRx), per cent of control at 100 nM; conditions: competition binding, per cent of DMSO control; read-out: Percent Control
AURKC, sequence (Q9UQB9 whole entry): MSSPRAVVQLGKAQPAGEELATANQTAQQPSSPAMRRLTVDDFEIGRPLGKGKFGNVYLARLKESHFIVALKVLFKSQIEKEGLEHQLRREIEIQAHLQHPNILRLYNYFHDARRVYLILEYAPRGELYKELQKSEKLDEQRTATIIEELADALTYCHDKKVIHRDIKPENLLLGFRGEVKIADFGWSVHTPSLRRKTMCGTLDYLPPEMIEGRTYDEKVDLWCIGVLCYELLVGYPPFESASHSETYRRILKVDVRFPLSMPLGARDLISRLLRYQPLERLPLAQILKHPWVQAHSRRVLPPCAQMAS
Experimental: as §1

[16] = target: T2, CSF1R; assay: biochemical; set-up: KINOMEscan competition binding assay (DiscoveRx), per cent of control at 100 nM; conditions: competition binding, per cent of DMSO control; read-out: Percent Control
Experimental: as §1

[17] = target: T1, EPHB6; assay: biochemical; set-up: KINOMEscan competition binding assay (DiscoveRx), per cent of control at 100 nM; conditions: competition binding, per cent of DMSO control; read-out: Percent Control
Experimental: as §1

[18] = target: FLT3 (Homo sapiens, UniProt P36888); assay: biochemical; set-up: KINOMEscan competition binding assay (DiscoveRx), per cent of control at 100 nM; conditions: competition binding, per cent of DMSO control; read-out: Percent Control
Experimental: as §1

[19] = target: FLT3(K663Q) (Homo sapiens, UniProt P36888, K663Q); assay: biochemical; set-up: KINOMEscan competition binding assay (DiscoveRx), per cent of control at 100 nM; conditions: competition binding, per cent of DMSO control; read-out: Percent Control
Experimental: as §1

[20] = target: T14, HPK1 (Homo sapiens, UniProt Q92918); assay: biochemical; set-up: KINOMEscan competition binding assay (DiscoveRx), per cent of control at 100 nM; conditions: competition binding, per cent of DMSO control; read-out: Percent Control
T14 construct: gene MAP4K1
Experimental: as §1

[21] = target: T3, KIT; assay: biochemical; set-up: KINOMEscan competition binding assay (DiscoveRx), per cent of control at 100 nM; conditions: competition binding, per cent of DMSO control; read-out: Percent Control
Experimental: as §1

[22] = target: KIT(L576P) (Homo sapiens, UniProt P10721, L576P); assay: biochemical; set-up: KINOMEscan competition binding assay (DiscoveRx), per cent of control at 100 nM; conditions: competition binding, per cent of DMSO control; read-out: Percent Control
Experimental: as §1

[23] = target: KIT(V559D) (Homo sapiens, UniProt P10721, V559D); assay: biochemical; set-up: KINOMEscan competition binding assay (DiscoveRx), per cent of control at 100 nM; conditions: competition binding, per cent of DMSO control; read-out: Percent Control
Experimental: as §1

[24] = target: T15, LOK (Homo sapiens, UniProt O94804); assay: biochemical; set-up: KINOMEscan competition binding assay (DiscoveRx), per cent of control at 100 nM; conditions: competition binding, per cent of DMSO control; read-out: Percent Control
T15 construct: gene STK10
Experimental: as §1

[25] = target: MAP4K5 (Homo sapiens, UniProt Q9Y4K4); assay: biochemical; set-up: KINOMEscan competition binding assay (DiscoveRx), per cent of control at 100 nM; conditions: competition binding, per cent of DMSO control; read-out: Percent Control
Experimental: as §1

[26] = target: T6, MEK5; assay: biochemical; set-up: KINOMEscan competition binding assay (DiscoveRx), per cent of control at 100 nM; conditions: competition binding, per cent of DMSO control; read-out: Percent Control
Experimental: as §1

[27] = target: T16, MST1 (Homo sapiens, UniProt Q13043); assay: biochemical; set-up: KINOMEscan competition binding assay (DiscoveRx), per cent of control at 100 nM; conditions: competition binding, per cent of DMSO control; read-out: Percent Control
T16 construct: gene STK4
Experimental: as §1

[28] = target: PDGFRA (Homo sapiens, UniProt P16234); assay: biochemical; set-up: KINOMEscan competition binding assay (DiscoveRx), per cent of control at 100 nM; conditions: competition binding, per cent of DMSO control; read-out: Percent Control
Experimental: as §1

[29] = target: PDGFRB (Homo sapiens, UniProt P09619); assay: biochemical; set-up: KINOMEscan competition binding assay (DiscoveRx), per cent of control at 100 nM; conditions: competition binding, per cent of DMSO control; read-out: Percent Control
PDGFRB, sequence (P09619 whole entry): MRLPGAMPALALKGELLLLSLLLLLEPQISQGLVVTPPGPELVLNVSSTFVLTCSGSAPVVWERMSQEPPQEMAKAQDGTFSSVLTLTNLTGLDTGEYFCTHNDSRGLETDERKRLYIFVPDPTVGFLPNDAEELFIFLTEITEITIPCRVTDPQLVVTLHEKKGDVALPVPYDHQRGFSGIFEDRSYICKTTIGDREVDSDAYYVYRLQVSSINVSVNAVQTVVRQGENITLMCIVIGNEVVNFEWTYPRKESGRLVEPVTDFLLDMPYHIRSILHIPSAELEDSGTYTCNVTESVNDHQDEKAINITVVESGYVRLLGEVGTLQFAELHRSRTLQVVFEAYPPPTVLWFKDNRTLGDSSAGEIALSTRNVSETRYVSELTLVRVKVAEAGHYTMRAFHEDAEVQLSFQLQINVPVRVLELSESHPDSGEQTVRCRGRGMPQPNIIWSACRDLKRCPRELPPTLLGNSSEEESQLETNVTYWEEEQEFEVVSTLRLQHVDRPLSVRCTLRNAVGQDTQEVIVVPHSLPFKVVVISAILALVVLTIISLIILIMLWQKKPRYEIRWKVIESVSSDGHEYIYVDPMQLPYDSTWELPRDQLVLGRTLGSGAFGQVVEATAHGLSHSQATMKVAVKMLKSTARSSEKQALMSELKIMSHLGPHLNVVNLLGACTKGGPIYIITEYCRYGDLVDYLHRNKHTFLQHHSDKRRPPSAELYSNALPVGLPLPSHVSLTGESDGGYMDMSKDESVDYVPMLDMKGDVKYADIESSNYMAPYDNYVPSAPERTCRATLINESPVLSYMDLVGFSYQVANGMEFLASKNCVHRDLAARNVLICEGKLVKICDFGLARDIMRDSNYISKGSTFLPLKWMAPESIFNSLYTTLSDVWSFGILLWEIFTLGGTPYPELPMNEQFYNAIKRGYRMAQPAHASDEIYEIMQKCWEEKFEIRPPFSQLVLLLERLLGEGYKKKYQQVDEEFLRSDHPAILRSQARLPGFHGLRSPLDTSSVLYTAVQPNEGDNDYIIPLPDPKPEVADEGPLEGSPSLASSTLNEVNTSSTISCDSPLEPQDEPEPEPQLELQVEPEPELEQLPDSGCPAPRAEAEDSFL
Experimental: as §1

[30] = target: PRKD2 (Homo sapiens, UniProt Q9BZL6); assay: biochemical; set-up: KINOMEscan competition binding assay (DiscoveRx), per cent of control at 100 nM; conditions: competition binding, per cent of DMSO control; read-out: Percent Control
Experimental: as §1

[31] = target: T4, RIP1; assay: biochemical; set-up: KINOMEscan competition binding assay (DiscoveRx), per cent of control at 100 nM; conditions: competition binding, per cent of DMSO control; read-out: Percent Control
Experimental: as §1

[32] = target: RIPK2 (Homo sapiens, UniProt O43353); assay: biochemical; set-up: KINOMEscan competition binding assay (DiscoveRx), per cent of control at 100 nM; conditions: competition binding, per cent of DMSO control; read-out: Percent Control
Experimental: as §1

T1 sequence (O15197 32-1021): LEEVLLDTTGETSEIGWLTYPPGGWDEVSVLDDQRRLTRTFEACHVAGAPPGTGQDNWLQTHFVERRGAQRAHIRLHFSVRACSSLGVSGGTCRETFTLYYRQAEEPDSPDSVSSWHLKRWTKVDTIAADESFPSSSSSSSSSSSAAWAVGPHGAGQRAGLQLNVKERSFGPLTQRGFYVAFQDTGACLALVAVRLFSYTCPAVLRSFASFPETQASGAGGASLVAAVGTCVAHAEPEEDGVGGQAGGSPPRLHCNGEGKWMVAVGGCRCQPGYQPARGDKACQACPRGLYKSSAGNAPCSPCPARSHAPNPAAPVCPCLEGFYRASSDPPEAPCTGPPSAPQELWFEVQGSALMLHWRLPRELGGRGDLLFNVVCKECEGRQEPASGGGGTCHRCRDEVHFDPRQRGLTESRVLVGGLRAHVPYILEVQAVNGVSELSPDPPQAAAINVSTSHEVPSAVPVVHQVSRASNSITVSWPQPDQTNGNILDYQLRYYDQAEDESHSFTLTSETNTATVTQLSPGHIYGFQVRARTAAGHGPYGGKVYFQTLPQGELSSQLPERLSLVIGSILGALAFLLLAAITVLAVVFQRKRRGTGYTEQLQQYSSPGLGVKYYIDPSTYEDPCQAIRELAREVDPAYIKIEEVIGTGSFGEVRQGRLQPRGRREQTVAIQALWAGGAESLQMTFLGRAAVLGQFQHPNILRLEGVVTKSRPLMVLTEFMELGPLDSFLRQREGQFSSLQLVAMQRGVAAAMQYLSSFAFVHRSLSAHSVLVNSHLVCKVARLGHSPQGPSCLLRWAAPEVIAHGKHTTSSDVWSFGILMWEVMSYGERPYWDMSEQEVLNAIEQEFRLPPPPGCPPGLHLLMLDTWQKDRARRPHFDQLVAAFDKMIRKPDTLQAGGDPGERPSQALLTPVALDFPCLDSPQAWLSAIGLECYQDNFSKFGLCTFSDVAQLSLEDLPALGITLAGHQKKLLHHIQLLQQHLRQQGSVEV
T2 sequence (P07333 20-972): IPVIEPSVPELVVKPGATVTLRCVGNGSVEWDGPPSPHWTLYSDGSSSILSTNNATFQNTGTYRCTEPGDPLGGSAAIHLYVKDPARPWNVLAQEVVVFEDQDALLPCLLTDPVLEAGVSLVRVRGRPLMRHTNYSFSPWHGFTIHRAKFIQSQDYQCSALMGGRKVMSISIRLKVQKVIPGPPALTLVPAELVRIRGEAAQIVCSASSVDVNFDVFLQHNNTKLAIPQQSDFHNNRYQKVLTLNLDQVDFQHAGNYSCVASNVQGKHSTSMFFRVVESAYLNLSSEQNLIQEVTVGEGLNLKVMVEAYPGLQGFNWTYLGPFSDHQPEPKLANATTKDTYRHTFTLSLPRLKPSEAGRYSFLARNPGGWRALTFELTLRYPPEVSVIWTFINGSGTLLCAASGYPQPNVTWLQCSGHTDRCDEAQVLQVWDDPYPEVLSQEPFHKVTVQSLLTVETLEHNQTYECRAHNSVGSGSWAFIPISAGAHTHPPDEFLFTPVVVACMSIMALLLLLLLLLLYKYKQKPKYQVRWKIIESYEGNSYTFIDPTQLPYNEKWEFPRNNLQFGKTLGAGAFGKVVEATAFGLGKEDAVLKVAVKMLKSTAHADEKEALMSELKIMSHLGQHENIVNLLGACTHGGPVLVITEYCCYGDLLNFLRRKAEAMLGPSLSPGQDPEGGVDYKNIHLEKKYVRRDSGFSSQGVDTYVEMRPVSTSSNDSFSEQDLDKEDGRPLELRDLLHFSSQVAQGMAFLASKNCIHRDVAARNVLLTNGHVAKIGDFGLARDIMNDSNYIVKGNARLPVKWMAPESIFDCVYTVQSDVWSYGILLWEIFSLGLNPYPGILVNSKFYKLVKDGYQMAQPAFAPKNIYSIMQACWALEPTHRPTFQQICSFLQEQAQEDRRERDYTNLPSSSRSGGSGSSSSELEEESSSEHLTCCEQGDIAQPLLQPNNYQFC

remaining binding at 0.1 µM [1]: < 1%
remaining binding at 0.1 µM [2]: < 1%
remaining binding at 0.1 µM [3]: < 1%
Kd [4]: 12 nM
Kd [5]: 130 nM
remaining binding at 0.1 µM [6]: < 1%
remaining binding at 0.1 µM [7]: 24%
remaining binding at 0.1 µM [8]: 2.2%
remaining binding at 0.1 µM [9]: 6.1%
remaining binding at 0.1 µM [10]: 0.3%
remaining binding at 0.1 µM [11]: 19%
remaining binding at 0.1 µM [12]: 3.3%
remaining binding at 0.1 µM [13]: 25%
remaining binding at 0.1 µM [14]: 9.3%
remaining binding at 0.1 µM [15]: 19%
remaining binding at 0.1 µM [16]: 0.5%
remaining binding at 0.1 µM [17]: 0.5%
remaining binding at 0.1 µM [18]: 19%
remaining binding at 0.1 µM [19]: 30%
remaining binding at 0.1 µM [20]: 30%
remaining binding at 0.1 µM [21]: 0.35%
remaining binding at 0.1 µM [22]: 0%
remaining binding at 0.1 µM [23]: 0.05%
remaining binding at 0.1 µM [24]: 30%
remaining binding at 0.1 µM [25]: 5.5%
remaining binding at 0.1 µM [26]: 0.1%
remaining binding at 0.1 µM [27]: 13%
remaining binding at 0.1 µM [28]: 13%
remaining binding at 0.1 µM [29]: 1.3%
remaining binding at 0.1 µM [30]: 32%
remaining binding at 0.1 µM [31]: 0%
remaining binding at 0.1 µM [32]: 12%
SMILES: Cn1cc(-c2cnc(N)c3c(-c4ccc5c(c4)CCN5C(=O)Cc4ccccc4)csc23)cn1 [GSK'074, GSK2593074A]
